From patent US20070010402A1, “Novel herbicides, usage thereof, novel thienopyrimidine derivatives, intermediates of the same, and process for production thereof” (NIHON NOHYAKU CO., LTD.,, priority 2002, published 2007)

Assays:
Type in all cases: in vivo
Scirpus juncoides = experiment: Submerged foliar treatment test (Test Example 3); settings: water depth 3 cm, cotyledon to 1-leaf stage, wettable powder, active ingredient 10 g/a, 28th day from the treatment
Experimental: (§1) The herbicidal effect was evaluated in terms of herbicidal rate obtained from the following equation: Herbicidal rate (%)=[1−(Weight of weeds above the ground in a treated plot)/(Weight of weeds above the ground in a non-treated plot)]×100
(§2) and was expressed by herbicidal index according to the following criteria.
(§3) Alluvial soil from a paddy field was put in a resin-made vat having an area of 200 cm^2. After fertilization, seeds of Echinochloa oryzicola, Rotala indica and Scirpus juncoides were cast on the soil and uniformly covered with the soil, and water was poured onto the soil to keep a water depth of 3 cm. Then, cultivation was continued in a greenhouse, and when the weeds to be tested reached the cotyledon stage to 1-leaf stage, the wettable powder obtained in Formulation Example 1 was diluted with water and a predetermined amount thereof was added dropwise uniformly to the weeds by means of a pipette to give 10 g of the active ingredient per an are. Thereafter, cultivation was further continued in the greenhouse, and the herbicidal effect was examined on the 28th day from the treatment. The results obtained are shown in Table 9 (the compound numbers in Table 9 correspond to those in Tables 1 to 6).

Echinochloa oryzicola = experiment: Submerged foliar treatment test (Test Example 3); settings: water depth 3 cm, cotyledon to 1-leaf stage, wettable powder, active ingredient 10 g/a, 28th day from the treatment
Experimental: as §1, §2, §3

Rotala indica = experiment: Submerged foliar treatment test (Test Example 3); settings: water depth 3 cm, cotyledon to 1-leaf stage, wettable powder, active ingredient 10 g/a, 28th day from the treatment
Experimental: as §1, §2, §3

Polygonum lapathifolium = experiment: Field soil treatment test (Test Example 2); settings: soil spray after seeding, wettable powder, active ingredient 10 g/a, 21st day from the treatment
Experimental: (§4) The herbicidal effect was evaluated in terms of herbicidal rate obtained from the following equation: Herbicidal rate (%)=[1−(Weight of weeds above the ground in a treated plot)/(Weight of weeds above the ground in a non-treated plot)]×100 and was expressed by herbicidal index according to the following criteria. [table] Alluvial soil from a field was put in a resin-made vat having an area of 200 cm^2. After fertilization, the seeds of Digitaria ciliaris, Chenopodium album and Polygonum lapathifolium were cast on the soil and uniformly covered with the soil. The wettable powder obtained in Formulation Example 1 was diluted with water and a predetermined amount thereof was sprayed uniformly to the soil by means of a small-sized power pressure spray so as to give 10 g of the active ingredient per an are. Thereafter, cultivation was further continued in the greenhouse, and the herbicidal effect was examined on the 21st day from the treatment. The results obtained are shown in Table 8 (the compound numbers in Table 8 correspond to those in Tables 1 to 6).

Chenopodium album = experiment: Field soil treatment test (Test Example 2); settings: soil spray after seeding, wettable powder, active ingredient 10 g/a, 21st day from the treatment
Experimental: as §4

Digitaria ciliaris = experiment: Field soil treatment test (Test Example 2); settings: soil spray after seeding, wettable powder, active ingredient 10 g/a, 21st day from the treatment
Experimental: as §4

| Structure (SMILES) | Herbicidal effect Scirpus juncoides (herbicidal index) (Scirpus juncoides) | Herbicidal effect Echinochloa oryzicola (herbicidal index) (Echinochloa oryzicola) | Herbicidal effect Rotala indica (herbicidal index) (Rotala indica) | Herbicidal effect Polygonum lapathifolium (herbicidal index) (Polygonum lapathifolium) | Herbicidal effect Chenopodium album (herbicidal index) (Chenopodium album) | Herbicidal effect Digitaria ciliaris (herbicidal index) (Digitaria ciliaris) |
| --- | --- | --- | --- | --- | --- | --- |
| CCOc1nc(-c2cccc(OC(F)(F)F)c2)c2cc(C)sc2n1 [6-34] | 5 (91 to 100) | 5 (91 to 100) | 5 (91 to 100) |  |  |  |
| Cc1cc2c(-c3cccc(OC(F)(F)F)c3)nc(OCC(F)(F)F)nc2s1 [6-108] |  |  |  | 5 (91 to 100) | 5 (91 to 100) | 5 (91 to 100) |
| Cc1cc2c(-c3cccc(Cl)c3)nc(OC3CCCC3)nc2s1 [6-54] | 4 (71 to 90) | 5 (91 to 100) | 5 (91 to 100) |  |  |  |
| Cc1cc2c(-c3ccc(F)c(C(F)(F)F)c3)nc(OC(C)C)nc2s1 [6-30] |  |  |  | 5 (91 to 100) | 5 (91 to 100) | 5 (91 to 100) |
| CCCOc1nc(-c2cccc(Cl)c2)c2cc(C)sc2n1 [6-52] | 3 (51 to 70) | 5 (91 to 100) | 5 (91 to 100) |  |  |  |
| Cc1cc2c(Oc3cccc(C(F)(F)F)c3)nc(-n3ccc(C(F)(F)F)n3)nc2s1 [6-201] | 3 (51 to 70) | 5 (91 to 100) | 5 (91 to 100) |  |  |  |
| Cc1cc2c(-c3cccc(OC(F)F)c3)nc(OCC(F)(F)F)nc2s1 [6-121] |  |  |  | 5 (91 to 100) | 5 (91 to 100) | 5 (91 to 100) |
| Cc1cc2c(-c3cccc(OC(F)(F)F)c3)nc(OC(C)C(F)(F)F)nc2s1 (stereo not drawn) [6-110] |  |  |  | 5 (91 to 100) | 5 (91 to 100) | 5 (91 to 100) |
| Cc1cc2c(-c3cccc(C(F)(F)F)c3)nc(N(C)C)nc2s1 [6-169] | 2 (31 to 50) | 5 (91 to 100) | 5 (91 to 100) |  |  |  |
| Cc1cc2c(-c3cccc(SC(F)(F)F)c3)nc(OS(C)(=O)=O)nc2s1 [6-164] | 4 (71 to 90) | 5 (91 to 100) | 5 (91 to 100) |  |  |  |
| Cc1cc2c(-c3cccc(C(F)(F)F)c3)nc(OS(=O)(=O)CCCCl)nc2s1 [6-157] | 4 (71 to 90) | 5 (91 to 100) | 5 (91 to 100) |  |  |  |
| Cc1cc2c(-c3cccc(OC(F)(F)F)c3)nc(Cl)nc2s1 [5-9] | 4 (71 to 90) | 5 (91 to 100) | 5 (91 to 100) |  |  |  |
| Cc1cc2c(-c3ccccc3C(F)(F)F)nc(-n3ccnc3)nc2s1 [6-191] | 3 (51 to 70) | 5 (91 to 100) | 5 (91 to 100) |  |  |  |
| Cc1cc2c(-c3cccc(C(F)(F)F)c3)nc(OCC(F)(F)C(F)(F)F)nc2s1 [6-101] |  |  |  | 4 (71 to 90) | 5 (91 to 100) | 5 (91 to 100) |
| CCOc1nc(-c2cccc(C(F)(F)F)c2)c2cc(C)sc2n1 [6-24] | 4 (71 to 90) | 5 (91 to 100) | 5 (91 to 100) |  |  |  |
| CCOc1nc(-c2ccccc2C(F)(F)F)c2cc(C)sc2n1 [6-43] |  |  |  | 2 (31 to 50) | 5 (91 to 100) | 5 (91 to 100) |
| CCCOc1nc(-c2cccc(OC)c2)c2cc(C)sc2n1 [6-62] | 5 (91 to 100) | 5 (91 to 100) | 5 (91 to 100) |  |  |  |

| Structure (SMILES) | Herbicidal effect Scirpus juncoides (herbicidal index) (Scirpus juncoides) | Herbicidal effect Echinochloa oryzicola (herbicidal index) (Echinochloa oryzicola) | Herbicidal effect Rotala indica (herbicidal index) (Rotala indica) | Herbicidal effect Polygonum lapathifolium (herbicidal index) (Polygonum lapathifolium) | Herbicidal effect Chenopodium album (herbicidal index) (Chenopodium album) | Herbicidal effect Digitaria ciliaris (herbicidal index) (Digitaria ciliaris) |
| --- | --- | --- | --- | --- | --- | --- |
| Cc1cc2c(-n3ccc(C(F)(F)F)n3)nc(-n3ccc(C(F)(F)F)n3)nc2s1 [6-200] | 3 (51 to 70) | 3 (51 to 70) | 5 (91 to 100) |  |  |  |
| Cc1cc2c(-c3cccc(C(F)(F)F)c3)nc(S(C)(=O)=O)nc2s1 [6-174] | 3 (51 to 70) | 1 (6 to 30) | 5 (91 to 100) |  |  |  |
| CCCOc1nc(-c2ccccc2Cl)c2cc(C)sc2n1 [6-56] | 4 (71 to 90) | 5 (91 to 100) | 5 (91 to 100) |  |  |  |
| Cc1cc2c(-c3cccc(C(F)(F)F)c3)nc(OS(=O)(=O)N(C)C)nc2s1 [6-160] | 4 (71 to 90) | 5 (91 to 100) | 5 (91 to 100) |  |  |  |
| Cc1cc2c(-c3cccc(SC(F)(F)F)c3)nc(OC3CCCC3)nc2s1 [6-86] | 4 (71 to 90) | 5 (91 to 100) | 5 (91 to 100) |  |  |  |
| Cc1cc2c(-c3ccccc3C(F)(F)F)nc(Cl)nc2s1 [Compound No. 5-3] | 3 (51 to 70) | 5 (91 to 100) | 5 (91 to 100) |  |  |  |
| CCCOc1nc(-c2cccc(C(F)(F)F)c2)c2cc(CC)sc2n1 [6-8] | 4 (71 to 90) | 5 (91 to 100) | 4 (71 to 90) |  |  |  |
| Cc1cc2c(-c3cccc(SC(F)F)c3)nc(OCC(F)(F)F)nc2s1 [6-127] | 4 (71 to 90) | 5 (91 to 100) | 5 (91 to 100) |  |  |  |
| Cc1cc2c(-c3cccc(C(F)(F)F)c3)nc(Oc3ccccc3)nc2s1 [6-146] | 2 (31 to 50) | 4 (71 to 90) | 5 (91 to 100) |  |  |  |
| Cc1cc2c(-c3cccc(Br)c3)nc(OCC(C)(C)C)nc2s1 [6-60] | 5 (91 to 100) | 5 (91 to 100) | 5 (91 to 100) |  |  |  |
| Cc1cc2c(-c3cccc(C(F)(F)F)c3)nc(OS(=O)(=O)CCl)nc2s1 [6-149] | 4 (71 to 90) | 5 (91 to 100) | 5 (91 to 100) |  |  |  |
| CCCCCOc1nc(-c2ccccc2C)c2cc(C)sc2n1 [6-47] | 1 (6 to 30) | 4 (71 to 90) | 3 (51 to 70) |  |  |  |
| Cc1cc2c(-c3cccc(OC(F)F)c3)nc(OC(C)C)nc2s1 [6-41] | 4 (71 to 90) | 5 (91 to 100) | 5 (91 to 100) |  |  |  |
| CCOc1nc(-c2sccc2C)c2cc(C)sc2n1 [6-50] | 3 (51 to 70) | 3 (51 to 70) | 4 (71 to 90) |  |  |  |
| Cc1cc2c(-c3cccc(C(F)(F)F)c3)nc(OC(C)C(C)C)nc2s1 (stereo not drawn) [6-72] | 3 (51 to 70) | 5 (91 to 100) | 5 (91 to 100) |  |  |  |
| Cc1cc2c(-c3cccc(SC(F)(F)F)c3)nc(OCC(F)F)nc2s1 [6-116] | 4 (71 to 90) | 5 (91 to 100) | 5 (91 to 100) |  |  |  |
| CC(=O)OC1COCC1Oc1nc(-c2cccc(C(F)(F)F)c2)c2cc(C)sc2n1 (mixture of isomers) [6-188] | 4 (71 to 90) | 5 (91 to 100) | 5 (91 to 100) |  |  |  |
